Measured values taken from paper PMC12030497, “Plasma Protein Binding, Biostability, Metabolite Profiling, and CYP450 Phenotype of TPB15 Across Different Species: A Novel Smoothened Inhibitor for TNBC Therapy” (Pharmaceutics, 2025).
Like-named read-outs stand apart in the source and are kept apart here.

Legend:
[1] = Plasma protein binding, overall across the five species; assay type: in vitro ADME, mice, rats, dogs, monkeys, humans; conditions: monkey, human, all species tested, low, medium and high concentrations (4 to 16 μg/mL), read-out: plasma protein binding rate, overall
Procedure: To prepare plasma samples of TPB15 at final concentrations of 4, 8, and 16 μg/mL, 1 μL of TPB15 dissolved in dimethyl sulfoxide (DMSO) at low (400 μg/mL), medium (800 μg/mL), and high (1600 μg/mL) concentrations was added to 99 μL of blank plasma obtained from humans, rats, mice, monkeys, and dogs. Each concentration was prepared in six replicates. The samples were then divided into two groups: one for determining the pre-ultrafiltration concentration (Cpre) and the other for measuring the post-ultrafiltration concentration (Ct), following the evaluation of the non-specific binding coefficient (NSB) of TPB15 to the ultrafiltration tubes. For Cpre determination, 10 μL of the sample was mixed with 990 μL of plasma, vortexed thoroughly, and analyzed for drug concentration using the previously reported liquid chromatography–tandem mass spectrometry (LC-MS/MS) method. For Ct determination, the samples were first incubated in a water bath at 37 °C for 3 h. After incubation, they were transferred to ultrafiltration tubes and centrifuged at 14,000 rpm for 20 min at 4 °C using a centrifuge (Sigma 3K-15) from Sigma Laborzentrifugen GmbH (Osterode am Harz, Germany). After centrifugation, 10 μL of the ultrafiltrate was mixed with 990 μL of plasma, vortexed, and analyzed for concentration using the same LC-MS/MS method. […]

[2] = Stability in human plasma; assay type: in vitro ADME; conditions: 37 °C, 453 μg/L
Procedure: A total of 696.5 μL of plasma from each species (healthy mice, rat, dog, monkey, and human) were spiked with 3.5 μL of TPB15 stock solution ([…] in DMSO), resulting in a final TPB15 concentration of 453 μg/L in plasma. The mixture was then aliquoted into three tubes, each with a volume of 200 μL, maintaining a final DMSO concentration of 0.5%. After incubation in a water bath at 37 °C for 0, 30, 60, 90, and 120 min, 100 µL samples were transferred into EP tubes. Subsequently, 10 µL of internal standard working solution were added, followed by vortex mixing. Then, 500 µL of ethyl acetate were added, and the mixture was vortexed again before being centrifuged at 14,800 rpm at 4 °C for 10 min. A total of 400 µL of the supernatant were transferred into a new EP tube and placed in a vacuum concentrator (Bionoon-VAC2) (Bionoon Biotech, Shanghai, China) to dry for 1 h. The dried residue was reconstituted with 100 µL of mobile phase, vortex mixed thoroughly, and centrifuged again at 14,800 rpm at 4 °C for 10 min. A volume of 5 µL of the supernatant was then taken for LC-MS/MS analysis to determine the drug concentration. Additionally, a blank control group was established, in which PBS buffer was used in place of blank plasma in the incubation system.

[3] = Metabolic stability in rat liver microsomes (RLM); assay type: in vitro ADME, Sprague-Dawley rat
Procedure: (§1) A total of 450 μL liver microsomes from mice, rat, dog, monkey, and human were spiked with 0.5 μL of TPB15 solution and pre-incubated in a water bath at 37 °C for 10 min. Following this, 50 μL of NADPH were added to initiate the reaction. The concentrations of each substance in the incubation system are detailed in Table 1. After initiating the metabolic reaction, 50 μL aliquots were removed at incubation times of 0, 5, 15, 30, 45, 60, and 90 min and transferred to 150 μL of icy methanol solution containing the internal standard to terminate the reaction. The mixtures were swirled for 2 min and then centrifuged at 14,800 rpm at 4 °C for 10 min. […] Three samples were prepared in parallel at each time point. Additionally, both a positive control group and a blank control group were established. In the positive control group, substrate testosterone was incubated with liver microsomes from mice, rat, dog, monkey, and human. The concentrations of substrate testosterone were measured at 0 and 90 min, and the changes in concentration before and after incubation were compared to confirm the activity of the liver microsomes. The blank control group included one drug-containing inactivated liver microsome sample for each species. The metabolic stability parameters, including in vitro elimination half-life (T1/2) and in vitro intrinsic clearance rate (CLint), were calculated based on this graph using the following formulas: in vitro elimination half-life (T1/2) = −0.693/k and in vitro intrinsic clearance rate (CLint) = (0.693 × incubation medium (mL))/(liver microsomes (mg) × T1/2).

[4] = Metabolic stability in monkey liver microsomes (MLM); assay type: in vitro ADME, crab-eating monkey
Procedure: as §1

[5] = Metabolic stability in dog liver microsomes (DLM); assay type: in vitro ADME, beagle dog
Procedure: as §1

MDA-MB-231 = test system: MDA-MB-231; set-up: method as in PMID 32690258; conditions: MDA-MB-231, in vitro; cited from earlier work
MDA-MB-468 xenograft = test system: MDA-MB-468 xenograft; set-up: method as in PMID 32690258; conditions: MDA-MB-468 xenograft nude mouse model, compared with positive control drug Vismodegib; cited from earlier work

## O=C(Nc1ccc(Cl)c(-c2nnc3c(Cl)cccn23)c1)c1ccc(Cl)nc1Cl [TPB15]
[1]; SD (rat), KM (mouse), beagle (dog)
  fraction unbound at 3 h: 0.176 to 0.191
[1]; mouse, rat, dog
  fraction unbound at 3 h: 0.176 to 0.185
[2]; incubation 0 min
  Remaining proportion of substrate TPB15 (%) Human: 100.0 ± 1.0%
[2]; incubation 30 min
  Remaining proportion of substrate TPB15 (%) Human: 97.3 ± 1.5%
[2]; incubation 60 min
  Remaining proportion of substrate TPB15 (%) Human: 97.7 ± 0.6%
[2]; incubation 90 min
  Remaining proportion of substrate TPB15 (%) Human: 98.0 ± 1.0%
[2]; incubation 120 min
  Remaining proportion of substrate TPB15 (%) Human: 97.2 ± 1.1%
[3]; Sprague-Dawley rat microsomes, 90 min, 5 μM TPB15, 0.5 mg/mL, NADPH 1 mM
  remaining proportion of TPB15 in liver microsomes: 76.0 ± 0.89%
[3]; Sprague-Dawley, rat, liver microsomes, RLM, 5 μM TPB15, 0.5 mg/mL microsomes, read-out: CLint (mL/min/mg), in vitro intrinsic clearance rate
  microsomal CLint at 5 μM: 0.0344 mL/min/mg
[4]; MLM, 5 μM TPB15, 0.5 mg/mL microsomes
  T1/2 (min), in vitro elimination half-life: 88.34 min
[4]; crab-eating monkey microsomes, 90 min, 5 μM TPB15, 0.5 mg/mL, NADPH 1 mM
  remaining proportion of TPB15 in liver microsomes: 48.0 ± 2.86%
[4]; monkey liver microsomes, MLM, 5 μM TPB15, 0.5 mg/mL microsomes, read-out: CLint (mL/min/mg), in vitro intrinsic clearance rate
  microsomal CLint at 5 μM: 0.0941 mL/min/mg
[4]; monkey liver microsomes, MLM, 5 μM TPB15, 0.5 mg/mL microsomes, read-out: T1/2 (min), in vitro elimination half-life
  half-life at 5 μM: 88 min
[5]; beagle dog microsomes, 90 min, 5 μM TPB15, 0.5 mg/mL, NADPH 1 mM
  remaining proportion of TPB15 in liver microsomes: 90.3 ± 3.54%
[5]; beagle, dog, liver microsomes, DLM, 5 μM TPB15, 0.5 mg/mL microsomes, read-out: CLint (mL/min/mg), in vitro intrinsic clearance rate
  microsomal CLint at 5 μM: 0.0132 mL/min/mg
[5]; beagle, dog, liver microsomes, DLM, 5 μM TPB15, 0.5 mg/mL microsomes, read-out: T1/2 (min), in vitro elimination half-life
  half-life at 5 μM: 630 min
MDA-MB-231
  inhibition of proliferation of TNBC cell line: significantly inhibits the proliferation
MDA-MB-468 xenograft
  tumor inhibitory effect: robust tumor inhibitory effect, surpassing that of the positive control drug Vismodegib
